From patent US4316839A, “Imidazodiazepine derivatives” (Hoffman-La Roche Inc., priority 1979, dated 1982)

How the values were obtained:
Schistosoma mansoni [1] = assay: schistosomicidal activity in infected mice; type: in vivo; settings: Mouse
Method: (§1) Mice and golden hamsters are infected subcutaneously with 60 cercaria of Schistosoma mansoni. Ca 42 days after the infection, they are treated orally with a single dosage of the compound to be tested. 5 Animals are used per test preparation and dosage. 10 Untreated animals are used as controls. The animals are killed and dissected 2 weeks (hamster) or 3 weeks (mice) after the treatment. Worm pairs in mesenteric veins, portal vein and liver are dissected-out, counted and the condition of the worms (living or dead) is registered. A schistosomicidal activity of a test preparation manifests itself in the appearance of dead worms in the vessels of the liver. Dead worms are never found in untreated control animals. The test is evaluated by calculating the percentage of dead worm pairs in the vessels of the liver in infected, treated animals.
(§2) The following representative compounds of formula I were tested in tests described earlier for possible detrimental effects on the schistosomicidal activity of (+)-5-(o-chlorophenyl)-1,3-dihydro-3-methyl-7-nitro-2H-1,4-benzodiazepin-2-one (compound S).

Schistosoma mansoni [2] = assay: schistosomicidal activity in infected golden hamsters; type: in vivo; settings: Hamster; Compound S 75 mg/kg p.o. alone
Method: as §1, §2

Schistosoma mansoni [3] = assay: in vitro schistosomicidal activity (motility of isolated worm pairs); type: cell-based; settings: 25 μg/ml alone
Method: In order to test the in vitro activity of preparations, worm pairs of Schistosoma mansoni are isolated from mice and incubated at 37° C. in a nutrient medium. Test preparations are added in the form of a solution or as a suspension. The motility of the worms is observed under the microscope and registered during the test duration of 120 hours. A schistosomicidal activity of a test preparation manifests itself in the more or less rapid loss of motility of the worms. Control worms in the nutrient medium without the addition of test preparation maintain their normal motility during the entire test duration of 120 hours.
as §2

[4] = molecular target: specific benzodiazepine receptors in the cerebral cortex; assay: inhibition of the binding of tritiated diazepam at the specific benzodiazepine receptors in the cerebral cortex
Method: The affinity of compounds of formula I to the central benzodiazepine receptors was determined according to the method described in Life Science 20, 2101-2110 (1977) and Science 198, 849-851 (1977). According to this method, the inhibition of the binding of tritiated diazepam at the specific benzodiazepine receptors in the cerebral cortex by test substances is ascertained. The IC50 ("50% inhibiting concentration") is that concentration of the test substance which brings about a 50 percent inhibition of the specific binding of the tritiated diazepam at the specific benzodiazepine receptors in the cerebral cortex.
(§3) In the following Table there are compiled the results which have been obtained with representative compounds of formula I. The ED50 value is given for each compound listed in the Table. The ED50 is the amount of the test compound in mg/kg (p.o.) which counteracts in 50% of the animals the diazepam effect in the foregoing test. Moreover, the Table contains the IC50 value (defined hereinbefore) for all test compounds listed therein as well as details concerning the acute toxicity of certain compounds (LD50 in mg/kg following single oral administration to mice).

[5] = system: diazepam effect in the pentetrazole test; assay: pentetrazole test: antagonism of the diazepam effect in mice; type: in vivo; settings: for ED50: Mus musculus, po, mice, diazepam 5 mg/kg i.p. 1 hour and test compound 15 min before pentetrazole 120 mg/kg i.p.
Method: This property was used as a basis for the test described hereinafter which permits the determination of compounds which are capable of antagonising the central properties of 1,4-benzodiazepines which have tranquillising activity.
The antagonistic activity of the compounds tested, i.e. their ability to counteract the activity of diazepam in the pentetrazole test, is determined by counting the mice which suffer spasmodic seizures in this test.
as §3

[6] = acute toxicity following single oral administration to mice; settings: mouse, in vivo
Source text: as §3

[7] = system: central activities of diazepam; assay: antagonism of the central activities of diazepam (sleep/waking behaviour) in male albino rats; type: in vivo
Source text: Male albino rats (body weight about 165 g) are used for this test.

[8] = system: central activities of flunitrazepam; assay: EEG of the dorsal hippocampus (theta rhythm) in conscious, curarised rats; antagonism of flunitrazepam; type: in vivo
Method: Four tests were carried out on conscious, curarised, artifically respirated rats. The bipolar-derived EEG of the dorsal hippocampus served as the measured variable. 10 minutes after the beginning of the derivation flunitrazepam was administered intravenously in a dosage of 0.1 mg/kg. The test substance was likewise administered intravenously in a dosage of 1 mg/kg to one animal 10 minutes and to three animals 30 minutes after the administration of flunitrazepam. The EEGs obtained were analysed continuously in the frequency range according to the rules of the Fourier transformation, whereby each of the computed spectra related to 1 minute.
The normal EEG from the hippocampus of conscious, curarised rats is characterised by a stable theta rhythm of 3.75-4.25 Hertz which remains unchanged at least 3 hours after the beginning of the artificial respiration. Flunitrazepam, in the given dosage, completely suppresses this theta rhythm for about 15 minutes. Thereafter, there appears a rhythm which is slowed down to 2.75-3.25 Hertz, which increases continuously and again attains the normal frequency of 4 Hertz 1 to 1.5 hours after the injection.

[9] = compounds of formula I with A = group (a)
[10] = 20 mg/kg i.p., then after 30 min diazepam 5 mg/kg i.v.
[11] = thieno derivatives, A = group (b)

Row | SMILES | IC50 [4, 9] | ED50 [5] | LD50 [6] | further results
1 | CC1N=C(c2ccccc2Cl)c2cc([N+](=O)[O-])ccc2NC1=O (single isomer, unassigned; (+)) [Compound S, (+)-5-(o-chlorophenyl)-1,3-dihydro-3-methyl-7-nitro-2H-1,4-benzodiazepin-2-one] | – | – | – | Schistosomicidal activity in % (Schistosoma mansoni [1]; Compound S 75 mg/kg p.o. alone): 99%; Schistosomicidal activity in % (Schistosoma mansoni [2]): 100%; Activity (in vitro) (Schistosoma mansoni [3]): a (worm pairs motionless within 15)
2 | CCOC(=O)c1ncn2c1CN(C)C(=O)c1cc(F)ccc1-2 [Example 1, ethyl 8-fluoro-5,6-dihydro-5-methyl-6-oxo-4H-imidazo[1,5-a][1,4]benzodiazepine-3-carboxylate] | 2500 nM | 5.8 mg/kg | > 5000 mg/kg | Schistosomicidal activity in % (Schistosoma mansoni [1]; 750 mg/kg p.o. alone): 0%
3 | CC(C)OC(=O)c1ncn2c1CN(C)C(=O)c1cc(F)ccc1-2 [Example 4, isopropyl 8-fluoro-5,6-dihydro-5-methyl-6-oxo-4H-imidazo [1,5-a][1,4]benzodiazepine-3-carboxylate] | 3900 nM | 6.6 mg/kg | > 5000 mg/kg | –
4 | CCOC(=O)c1ncn2c1CN(C)C(=O)c1c(F)cccc1-2 [Example 10, ethyl 7-fluoro-5,6-dihydro-5-methyl-6-oxo-4H-imidazo[1,5-a][1,4]benzodiazepine-3-carboxylate] | 2000 nM | 2.1 mg/kg | > 5000 mg/kg | –
5 | CCOC(=O)c1ncn2c1C1C=CCN1C(=O)c1c(F)cccc1-2 (centres unmarked) [Example 11, ethyl 8-fluoro-11,13a-dihydro-9-oxo-9H-imidazo[1,5-a]pyrrolo[2,1-c][1,4]benzodiazepine-1-carboxylate] | 2100 nM | 1.8 mg/kg | 500 to 1000 mg/kg | –
6 | CCOC(=O)c1ncn2c1[C@@H]1CCCN1C(=O)c1c(Cl)cccc1-2 [Example 14, ethyl (S)-8-chloro-11,12,13,13a-tetrahydro-9-oxo-9H-imidazo[1,5-a]pyrrolo[2,1-c][1,4]benzodiazepine-1-carboxylate] | 1700 nM | 1 mg/kg | 750 to 1500 mg/kg | –
7 | CCOC(=O)c1ncn2c1CN(C)C(=O)c1ccccc1-2 [Example 16, ethyl 5,6-dihydro-5-methyl-6-oxo-4H-imidazo[1,5-a][1,4]benzodiazepine-3-carboxylate] | 3000 nM | 10.9 mg/kg | > 5000 mg/kg | waking of diazepam-treated animals ([7]; 5 mg/kg i.v., 5 or 15 min after diazepam 5 mg/kg i.v. or 30 min after diazepam 10 mg/kg i.p.): the animals stand up immediately and move around; behaviour after test substance alone ([7]; 20 mg/kg i.p.): the animals remain awake and show a normal behaviour; duration of waking phase [7, 10]: at least 30 minutes; symptoms after subsequent diazepam [7, 10]: in the first 2 minutes after the injection slight sedation and ataxia, but these symptoms rapidly disappear; antagonism of the central activities of diazepam ([7]; rats, overall finding): antagonises the central activities of the known 1,4-benzodiazepine derivative diazepam
8 | CN1Cc2c(C#N)ncn2-c2ccccc2C1=O [Example 18, 5,6-dihydro-5-methyl-6-oxo-4H-imidazo[1,5-a][1,4]benzodiazepine-3-carbonitrile] | 100000 nM | 2.6 mg/kg | 1250 mg/kg | –
9 | CCOC(=O)c1ncn2c1[C@@H]1CCCN1C(=O)c1ccccc1-2 [Example 30, ethyl (S)-11,12,13,13a-tetrahydro-9-oxo-9H-imidazo[1,5-a]pyrrolo[2,1-c][1,4]benzodiazepine-1-carboxylate] | 6400 nM | 9.3 mg/kg | 1250 to 2500 mg/kg | theta rhythm frequency after test substance ([8]; 1 mg/kg i.v., 10 or 30 min after flunitrazepam): 4 Hertz; normalisation of theta rhythm ([8]; 1 mg/kg i.v., 10 or 30 min after flunitrazepam 0.1 mg/kg i.v.): immediate, long-lasting normalisation of the described theta rhythm at 4 Hertz; effect on theta rhythm ([8]; 1 mg/kg i.v., 10 min after flunitrazepam): immediately brought about the rhythm suppressed by flunitrazepam, whereby this showed the normal frequency from the outset; effect on theta rhythm ([8]; 1 mg/kg i.v., 30 min after flunitrazepam): accelerated the already, but slowly, re-appearing rhythm immediately to its normal frequency of 4 Hertz; antagonism of the central activities of flunitrazepam ([8]; rats, overall finding): antagonises the central activities of the known 1,4-benzodiazepine derivative flunitrazepam
10 | COC(=O)c1ncn2c1[C@@H]1CCCN1C(=O)c1ccccc1-2 [Example 31, methyl (S)-11,12,13,13a-tetrahydro-9-oxo-9H-imidazo[1,5-a]pyrrolo[2,1-c][1,4]benzodiazepine-1-carboxylate] | 32000 nM | 3.5 mg/kg | 2000 to 4000 mg/kg | –
11 | CCOC(=O)c1ncn2c1CN(C)C(=O)c1sccc1-2 [Example 36, ethyl 5,6-dihydro-5-methyl-6-oxo-4H-imidazo[1,5-a]thieno[2,3-f][1,4]diazepine-3-carboxylate] | – | 12.6 mg/kg | – | IC50 [4, 11]: 1.1 nM
12 | COC(=O)c1ncn2c1CN(C)C(=O)c1sccc1-2 [Example 37, methyl 5,6-dihydro-5-methyl-6-oxo-4H-imidazo[1,5-a]thieno[2,3-f][1,4]diazepine-3-carboxylate] | – | 0.83 mg/kg | – | IC50 [4, 11]: 1.2 nM
13 | N#Cc1ncn2c1[C@@H]1CCCN1C(=O)c1ccccc1-2 [Example 42, (S)-11,12,13,13a-tetrahydro-9-oxo-9H-imidazo[1,5-a]pyrrolo[2,1-c][1,4]benzodiazepine-1-carbonitrile] | 31000 nM | 12.1 mg/kg | – | –
14 | CN1C(=O)CN=C(c2ccccc2)c2cc(Cl)ccc21 [diazepam, reference compound] | – | – | – | protection from spasmodic seizures in the pentetrazole test ([5]; diazepam 5 mg/kg i.p., more than 900 mice): protected all experimental animals from spasmodic seizures; falling asleep / rousing reflex ([7]; diazepam 5 mg/kg i.v.): fall asleep immediately, no longer show rousing reflex; sleep in the lateral position, duration ([7]; diazepam 5 mg/kg i.v.): at least 60 minutes; time to slowly wake up ([7]; diazepam 5 mg/kg i.v.): about 1.5 hours; falling asleep ([7]; diazepam 10 mg/kg i.p.): fall asleep within a few minutes; sleep duration ([7]; diazepam 10 mg/kg i.p.): 2 to 3 h
15 | CN1C(=O)CN=C(c2ccccc2F)c2cc([N+](=O)[O-])ccc21 [flunitrazepam, reference compound] | – | – | – | complete suppression of theta rhythm, duration ([8]; flunitrazepam 0.1 mg/kg i.v.): about 15 minutes; frequency of slowed-down rhythm ([8]; flunitrazepam 0.1 mg/kg i.v., after suppression phase): 2.75-3.25 Hertz; time to again attain normal frequency of 4 Hertz ([8]; flunitrazepam 0.1 mg/kg i.v., after the injection): 1 to 1.5 h
